Our source for the residual activity, solubility and IC50 values is ChEMBL document CHEMBL5108067, “Discovery of Potent OTUB1/USP8 Dual Inhibitors Targeting Proteostasis in Non-Small-Cell Lung Cancer” (J Med Chem, 2022).

Molecules are shown by their SMILES.

Data set [1] concerns the target T1, Ubiquitin carboxyl-terminal hydrolase 8 (Homo sapiens) (UniProt P40818).
T1 sequence (whole entry): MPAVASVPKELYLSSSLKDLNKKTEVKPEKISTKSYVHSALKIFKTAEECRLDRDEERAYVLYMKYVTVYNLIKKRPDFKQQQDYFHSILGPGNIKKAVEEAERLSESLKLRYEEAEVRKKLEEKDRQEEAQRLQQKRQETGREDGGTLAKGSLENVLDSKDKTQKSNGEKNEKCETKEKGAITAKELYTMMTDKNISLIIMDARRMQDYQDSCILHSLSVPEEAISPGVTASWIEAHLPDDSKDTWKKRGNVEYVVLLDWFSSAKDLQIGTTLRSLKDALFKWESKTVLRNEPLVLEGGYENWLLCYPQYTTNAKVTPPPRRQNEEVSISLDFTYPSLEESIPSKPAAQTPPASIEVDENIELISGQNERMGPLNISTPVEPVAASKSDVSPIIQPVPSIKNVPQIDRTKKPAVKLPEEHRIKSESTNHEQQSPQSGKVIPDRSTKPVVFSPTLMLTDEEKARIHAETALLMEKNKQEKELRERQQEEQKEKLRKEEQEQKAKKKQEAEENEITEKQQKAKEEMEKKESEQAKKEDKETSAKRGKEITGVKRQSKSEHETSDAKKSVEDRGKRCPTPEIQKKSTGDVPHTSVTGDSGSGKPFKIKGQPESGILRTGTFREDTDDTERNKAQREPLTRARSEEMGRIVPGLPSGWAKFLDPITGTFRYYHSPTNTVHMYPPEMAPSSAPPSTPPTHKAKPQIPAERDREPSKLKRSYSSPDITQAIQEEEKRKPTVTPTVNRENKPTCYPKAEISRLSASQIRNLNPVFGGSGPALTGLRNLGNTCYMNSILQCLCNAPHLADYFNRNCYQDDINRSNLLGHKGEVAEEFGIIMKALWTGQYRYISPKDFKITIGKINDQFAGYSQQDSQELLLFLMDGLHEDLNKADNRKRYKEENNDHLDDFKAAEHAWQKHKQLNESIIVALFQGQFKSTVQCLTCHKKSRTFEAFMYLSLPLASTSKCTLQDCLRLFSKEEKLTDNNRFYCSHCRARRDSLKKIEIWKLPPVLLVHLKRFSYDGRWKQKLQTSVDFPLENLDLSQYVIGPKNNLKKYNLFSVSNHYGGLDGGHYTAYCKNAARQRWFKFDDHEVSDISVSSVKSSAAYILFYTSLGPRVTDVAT
The experiment in a line: Inhibition of N-terminal His-6 tagged USP8 (734 to 1110 residues) (unknown origin) expressed in Escherichia coli BL21 (DE3) cells at 10 nM measured after 3 hrs by fluorescence based Plate reader method relative to control. The following applies: values are per cent of control.

Data set [2] deals with T1, Ubiquitin carboxyl-terminal hydrolase 8 (Homo sapiens). Briefly: Inhibition of N-terminal His-6 tagged USP8 (734 to 1110 residues) (unknown origin) expressed in Escherichia coli BL21 (DE3) cells at 100 nM measured after 3 hrs by fluorescence based Plate reader method relative to control. The following applies: values are per cent of control.
Data set [3] can be described thus: Aqueous solubility of the compound measured after 24 hr by […] LC-MS/MS analysis. The data set is classed as physicochemical. The conditions noted are these: buffer.
Data set [4] concerns the target Ubiquitin thioesterase OTUB1 (Homo sapiens, UniProt Q96FW1). Briefly: Inhibition of N-terminal His-6 tagged OTUB1 (40 to 271 residues) (unknown origin) expressed in Escherichia coli BL21 (DE3) cells using Ub-Rho measured after 0.5 to 3 hrs by fluorescence based Plate reader method.
For data set [5], the target named is T2, Ubiquitin carboxyl-terminal hydrolase 1 (Homo sapiens, UniProt O94782).
T2 sequence (O94782 whole entry): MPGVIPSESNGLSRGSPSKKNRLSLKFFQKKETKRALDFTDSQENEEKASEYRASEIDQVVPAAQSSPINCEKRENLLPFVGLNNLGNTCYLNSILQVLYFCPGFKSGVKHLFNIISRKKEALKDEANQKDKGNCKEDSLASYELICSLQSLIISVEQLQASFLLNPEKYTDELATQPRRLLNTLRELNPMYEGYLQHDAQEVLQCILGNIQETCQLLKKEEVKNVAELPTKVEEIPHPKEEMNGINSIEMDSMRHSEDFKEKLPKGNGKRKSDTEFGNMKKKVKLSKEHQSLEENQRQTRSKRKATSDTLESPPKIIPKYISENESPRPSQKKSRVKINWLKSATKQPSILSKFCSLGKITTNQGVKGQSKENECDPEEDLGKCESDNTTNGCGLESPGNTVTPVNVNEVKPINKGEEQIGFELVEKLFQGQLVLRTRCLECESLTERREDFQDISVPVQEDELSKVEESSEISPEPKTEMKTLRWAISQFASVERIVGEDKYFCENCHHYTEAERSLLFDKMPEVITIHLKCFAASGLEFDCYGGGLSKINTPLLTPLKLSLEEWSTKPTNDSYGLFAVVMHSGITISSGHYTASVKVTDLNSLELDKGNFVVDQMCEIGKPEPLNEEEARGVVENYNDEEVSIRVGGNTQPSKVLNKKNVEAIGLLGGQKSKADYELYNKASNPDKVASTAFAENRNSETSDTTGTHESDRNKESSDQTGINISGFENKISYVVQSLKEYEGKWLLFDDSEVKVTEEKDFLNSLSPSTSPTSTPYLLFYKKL
Briefly: Inhibition of USP1 (unknown origin) using Ub-Rho measured after 0.5 to 3 hrs.

The target in data set [6] is T3, Ubiquitin carboxyl-terminal hydrolase 2 (Homo sapiens, UniProt O75604).
T3 sequence (O75604 whole entry): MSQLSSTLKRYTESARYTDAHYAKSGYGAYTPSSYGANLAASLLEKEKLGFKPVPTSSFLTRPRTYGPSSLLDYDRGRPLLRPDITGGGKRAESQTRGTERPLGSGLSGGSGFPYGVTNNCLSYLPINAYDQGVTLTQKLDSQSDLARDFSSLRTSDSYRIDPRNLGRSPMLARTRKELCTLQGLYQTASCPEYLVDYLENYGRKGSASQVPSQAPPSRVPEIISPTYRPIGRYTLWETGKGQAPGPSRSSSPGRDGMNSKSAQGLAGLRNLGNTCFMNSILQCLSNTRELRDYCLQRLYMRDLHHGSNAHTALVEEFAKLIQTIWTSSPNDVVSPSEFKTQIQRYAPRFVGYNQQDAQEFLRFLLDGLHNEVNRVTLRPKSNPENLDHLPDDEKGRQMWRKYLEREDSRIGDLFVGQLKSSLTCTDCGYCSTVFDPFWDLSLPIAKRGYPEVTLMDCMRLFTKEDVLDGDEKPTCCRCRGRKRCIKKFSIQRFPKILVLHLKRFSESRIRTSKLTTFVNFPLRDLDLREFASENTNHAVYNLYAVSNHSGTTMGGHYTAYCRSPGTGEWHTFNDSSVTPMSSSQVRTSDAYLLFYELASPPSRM
Briefly: Inhibition of USP2 (unknown origin) using Ub-Rho measured after 0.5 to 3 hrs.

In data set [7] the test system is EBC-1. The experiment in a line: Antiproliferative activity against human EBC-1 cells harboring wild type KRAS incubated for 72 hrs by MTT assay. The format is functional, cell-based. The conditions noted are these: EBC-1, 72 h. On the technique in general: Tetrazolium assays rely on reduction of a dye to a coloured formazan, in cell work by metabolically active cells.

Data set [8] relates to NCI-H23. Briefly: Antiproliferative activity against human NCI-H23 cells harboring KRAS mutant incubated for 72 hrs by MTT assay. The data set is classed as functional, cell-based. The following applies: NCI-H23, 72 h.

Chain of Ubiquitin thioesterase OTUB1 (Q96FW1 whole entry, the tested form may be a part): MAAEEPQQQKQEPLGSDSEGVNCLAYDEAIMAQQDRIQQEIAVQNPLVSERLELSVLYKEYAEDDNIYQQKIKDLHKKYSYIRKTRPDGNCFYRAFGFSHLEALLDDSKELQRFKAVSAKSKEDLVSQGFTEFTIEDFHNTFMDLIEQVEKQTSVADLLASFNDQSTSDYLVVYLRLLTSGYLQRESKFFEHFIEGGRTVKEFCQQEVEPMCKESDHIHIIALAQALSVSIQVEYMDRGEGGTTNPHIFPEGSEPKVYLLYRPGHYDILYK

Usually residual activity stands for the activity still measured, relative to the control. A lower residual activity goes with little activity left. As usually defined, the IC50 is the midpoint of a concentration-inhibition curve. Read a low IC50 as higher potency. As to `CN1CC[C@@H](Oc2ccc(Cl)c(-c3nc4c(o3)C(=O)c3ccccc3C4=O)c2)C1`, the residual activity was 35.8% in data set [1] and 25% in data set [2]. In data set [3], the solubility entry is “Soluble”. Also, the IC50 in data set [4] was 7.1 nM; in data set [5] it was 1900 nM; in data set [6], 6200 nM; in data set [7] it was 138 nM; in data set [8], 266 nM.
Consider `CN1CC[C@@H](Oc2ccc(Cl)c(-c3nc4c(o3)C(=O)c3ccccc3C4=O)c2F)C1`, for which the residual activity in data set [1] was 37.2%; in data set [2], 20.5%. Further, the solubility entry in data set [3] was “Soluble”. The IC50 in data set [4] is 0.42 nM; in data set [5], 2100 nM; in data set [6], over 10000 nM; in data set [7], 176 nM; in data set [8] it was 423 nM.
On to `O=C1c2ccccc2C(=O)c2oc(-c3cccnc3)nc21`, for which the residual activity was 43.4% in data set [1] and 32.2% in data set [2]. The IC50 in data set [4] was 1.7 nM; in data set [5], 990 nM; in data set [6], 5100 nM; in data set [7], 122 nM; in data set [8], 281 nM.
On to `CN1CC[C@@H](Oc2ccc(F)c(-c3nc4c(o3)C(=O)c3ccccc3C4=O)c2Cl)C1`, for which the residual activity in data set [1] was 21.7%; in data set [2] it was 16.5%. The solubility entry in data set [3] is on record as “Soluble”. Besides, the IC50 in data set [4] came out at 0.17 nM; in data set [5], 1370 nM; in data set [6], 3800 nM; in data set [7] it was 172 nM; in data set [8] it was 431 nM.
